Series [1] concerns human platelet rich plasma. The format is cell-based. The method, then: To determine the effects brought about on platelets by the compounds used in Examples 16 through 18, the test for recovery of function of platelets was carried out by the following procedure.
First, a solution of 20,000 ppm of isopropyl decyl maleate in methanol (Example 19), a solution of 20,000 ppm of isopropyl tetradecyl maleate in methanol (Example 20), a solution of 20,000 ppm of isopropyl decyl itaconate in methanol (Example 21), a solution of 20,000 ppm of di-2-ethylhexyl maleate in methanol (Control 24), a solution of 20,000 ppm of di-2-ethylhexyl phthalate in methanol (Control 25), a solution of 20,000 ppm of dinormal decyl phthalate in methanol (Control 26), and methanol containing no added compound (blank) were prepared. These solutions were severally added to human […] in a fixed amount of 1/100. […]
To determine the effects exerted on platelets by 2-ethylhexyl isostearate used in Example 24 and 2-ethylhexyl 2-ethylhexanoate used in Example 25, a test for the recovery of function of platelets was carried out by following the procedure of Examples 19 through 21. […] The procedure of Examples 19 through 21 was repeated on these solutions to determined maximum capacity for aggregation with respect to 50µM ADP and 10µg/ml collagen in the presence of 0.2 mg of fibrinogen per ml.

Series [2] relates to human concentrated red cells. The series can be described thus: Hemolysis of stored CRC, reagent added as Tween 80/physiological saline emulsion; plasma hemoglobin by TMB method. The following applies: final concentration 0.5 mM, emulsion, 4°C, 4 weeks. The format is cell-based. On the procedure: Isopropyl isotridecyl maleate was added to a 2000ug/ml polyoxyethylene monooleate (reagent-grade product of Wako Junyaku K.K. marketed under trademark designation of "Tween 80")/physiological saline mixed solution in such an amount to be contained therein in a final concentration of 4mM. A 0.2ml aliquot of the resultant emulsion was added to a human concentrated red cells (hereinafter referred to as "CRC") adjusted in advance to a hematocrit value of about 70% so as to be contained therein in a final concentration indicated in Table 1. The resulting liquid was placed in a stoppered polypropylene tube and left standing at rest at 4°C for 4 weeks. At the end of this standing, it was tested for plasma hemoglobin concentration by the TMB method (Clin. Chem., 23, 749-(1977)).
An emulsion was prepared by following the procedure of Example 1, except that isopropyl decyl maleate was used in place of isopropyl-isotridecyl maleate. A CRC sample incorporating the emulsion was left standing and thereafter tested for plasma hemoglobin concentration.
Emulsions were prepared by following the procedure of Excample 1, except that di-2-ethylhexyl phthalate (Control 1) and diisopropyl maleate, a carboxylic ester compound deviating from the scope of the present invention (Control 2) were respectively used in place of isopropyl isotridecyl maleate. CRC samples severally incorporating the emulsions were left standing and, thereafter, tested for plasma hemoglobin concentration.
Glycerine-l-butyl-3-isostearyl ether was added to a 2000 ug/ml polyoxyethylene monooleate (regent-grade product of Wako Junyaku K.K. marketed under trademark designation of "Tween 80")/ physiological saline mixed solution so as to be contained therein in a final concentration of 4 mM. A 0.2ml aliquot of the resultant emulsion was added to CRC adjusted in advance to a hematocrit value of about 70% so as to be contained therein in a final concentration indicated in Table 3. The resultant liquid was placed in a stoppered polypropylene tube and left standing at 4°C for 4 weeks. Thereafter, it was tested for plasma hemoglobin concentration by following the procedure of Example 1.
An emulsion was prepared by following the procedure of Example 5, except that glycerine-1,3-dioctyl ether was used in place of glycerine- l-butyl-3-isostearyl ether. A CRC sample incorporating the resultant emulsion was left standing and, thereafter, tested for plasma hemoglobin concentration. Controls 7 and 8
Emulsions were prepared by following the procedure of Example 5, except that di-2-ethylhexyl phthalate (Control 7) and glycerine monooctyl ether, an ether compound deviating from the scope of the present invention, (Control 8) were respectively used in place of glycerine-l-butyl-3-isostearyl ether. CRC samples incorporating the emulsions were left standing and, thereafter, tested for plasma hemoglobin concentration.
Isopropyl isolaurate was dispersed in a 2000 ug/ml poloxyethylene monooleate (reagent-grade product of Wako Junyaku K.K. marketed under trademark designation of "Tween 80")/physiological saline mixed solution so as to be contained therein in a concentration of 4 mM. A 0.2-ml aliquot of the resultant emulsion was added to CRC adjusted in advance to a hematocrit value of about 70% so as to be contained therein in a final concentration indicated in Table 5. The resultant liquid was placed in a stoppered polypropylene tube and left standing at 4°C for 4 weeks. Thereafter, it was tested for plasma hemoglobin concentration by following the procedure of Example 1.
An emulsion was prepared by following the procedure of Example 9, except that 2-ethylhexyl isostearate was used in place of isopropyl isolaurate. A CRC sample incorporating the resultant emulsion was left standing and, thereafter, tested for plasma hemoglobin concentration.

Series [3] has as its system human platelet rich plasma. As to the kind of experiment: Platelet aggregation in platelet rich plasma (Aggrecoder). Format: cell-based. The following applies: for activity at 400 µM: Homo sapiens, Platelet, 2 h, 40 mM methanol solution added in 1/100, room temperature 2 hours, relative to blank. On the procedure:
A 40 mM methanol solution of isopropyl isotridecyl maleate (Example 13), a 40 mM methanol solution of glycerine-l-butyl-3-isostearyl ether (Example 14), a 40 mM methanol solution of isopropyl isolaurate (Example 15), a 40 mM methanol solution of di-2-ethylhexyl phthalate (Control 19) and methanol containing no added compound (Control 20) were severally added to a human platelet rich plasma (count of platelets about 300,000/mm ) in a fixed amount of 1/100, left standing at room temperature for 2 hours, and tested for platelet aggregation by the use of an instrument (product of Kyoto Daiichikagaku K.K. marketed under "Aggrecoder").
The percentage of transmittance of light through the solution of platelet rich plasma containing a given sample to the maximum transmittance of light through the same solution of platelet rich plasma not containing the sample (blank) was reported as the ratio of aggregation of the sample. As aggregation inducers, 5 µM ADP (adenosine diphosphoric acid) and 5 ug/ml collagen were used.

The test system of series [4] is platelets. The following applies: Jouranl of Japan blood Transfusion Society, 28(3) 282 (1981); cited from earlier work.
The subject of series [5] is erythrocytes. The following applies: dissolving from flexible vinyl chloride resin container into preserved blood; Blood (1984); cited from earlier work.

Structures are written as SMILES. Where two headings read alike, the source gives them in different places.

The values that follow come from EP0334956A1, “HEMOLYSIS INHIBITOR AND MEDICAL RESIN COMPOSITION, MEDICAL IMPLEMENT, AND BLOOD-PRESERVING FLUID CONTAINING THE SAME” (KAO CORPORATION, priority 1986, dated 1988).

`CCCCC(CC)COC(=O)C(CC)CCCC` (stereo not shown) [2-ethylhexyl 2-ethylhexanoate]: the “action on recovery of ability of platelet aggregation (in words)” value in series [1] is listed as “produced no discernible action to curb recovery of the ability of platelet aggregation”.

`CCCCC(CC)COC(=O)CCCCCCCCCCCCCCC(C)C` (stereo not shown) [2-ethylhexyl isostearate]: in series [1], the “action on recovery of ability of platelet aggregation (in words)” value is listed as “produced no discernible action to curb recovery of the ability of platelet aggregation”.

Regarding `CCCCC(CC)COC(=O)c1ccccc1C(=O)OCC(CC)CCCC` (stereo not shown) [Di-2-ethylhexyl phthalate, reference compound], the “Hemoglobin concentration in plasma” value amounted to 41 Mg/ml in series [2] (Table 1), 62 mg/mL in series [2] (Table 3) and 35 mg/mL in series [2] (Table 5). Besides, the activity at 400 µM in series [3] (read-out: Ratio of platelet aggregation, aggregation inducer 5 µM ADP) is 92.1%; in series [3] (read-out: Ratio of platelet aggregation, aggregation inducer 5 µg/ml collagen), 89.6%. The “effect on aggregating ability of platelets (in words)” value is “produced a discernible effect of curbing the recovery of the aggregating ability of platelets” in series [3] (summary of Table 7) and “hinders the aggregating ability of platelets” in series [4]. Also, the “effect on hemolysis of erythrocytes (in words)” value in series [5] is “serves to hinder the hemolysis of erythrocytes”.
